This is an account of results in article PMC7707092, “Discovery and characterization of ORM‐11372, a novel inhibitor of the sodium‐calcium exchanger with positive inotropic activity” (British Journal of Pharmacology, 2020).

Series [1] relates to NCX. More on the design: method as in ref 1 (a number printed in a supplementary file, which may have a reference list of its own: not looked up in the article's list). The settings on record: Rat, cited from earlier work.
In a further series the target is hNCX1 (Homo sapiens, UniProt P32418). The experiment in a line: Confirmatory fluorescence assay for hNCX1 inhibition (forward mode, HEK293 cells, Charles River). It counts as cell-based. Here is the method:
A confirmatory hNCX1 inhibition assay was performed in Charles River Laboratories, Cleveland. Briefly, HEK293 cells stably expressing hNCX1 were plated in 384‐well black wall, clear‐bottom microtitre plates and the next day loaded with Fluo‐8 for 30 min at 37°C. A plate was inserted into a FLIPR^TETRA, and a baseline was recorded during a preincubation period where test compound or vehicle in a Na^+‐free HB‐PS containing thapsigargin (6 μM) and […] (30 μM) was added to each well for ~5 min. Next, the NCX1 stimulation period was recorded in which Na^+‐containing HB‐PS (with 2‐μM thapsigargin and 10‐μM FCCP) was added. The experiments were performed at room temperature. The kinetic data generated were reduced for each well to maximum relative fluorescence units (RFU) minus minimum RFU after subtracting bias based on the first sample. The mean of the max–min RFU values during the stimulation period for the 3–4 replicates at each concentration on a plate was then plotted versus concentration and fitted to a Hill equation.

A short description of the next series: Solubility. It counts as physicochemical. Particulars: pH 7.4 phosphate buffer.
Series [2] concerns NCX. More on the design: method as in ref 1 (a number printed in a supplementary file, which may have a reference list of its own: not looked up in the article's list). Particulars: Rabbit, cited from earlier work.
The target in another series is T1, human NCX 1.1 (Homo sapiens, UniProt P32418).
T1 construct: expressed in transfected cells
Put plainly: Fluorescence screening assay for hNCX 1.1 inhibition (reverse mode, Sf9 cells). It counts as cell-based. Particulars: Sf9 cells expressing human NCX1.1, reverse mode, fluorescence; n=3 assays. Here is the method: Spodoptera frugiperda (Sf9; RRID:CVCL_0549) cells are widely used for the transient and stable expression of recombinant proteins. Here, Sf9 cells were stably transfected with human NCX 1.1 and maintained in spinner flasks with insect cell culture medium (TNM‐FH), supplemented with 10% FBS, antibiotic–antimycotic solution, and 50 μg·ml^−1 of blasticidin at 28°C in a non‐humidified, CO2‐free atmosphere. The Sf9 cell suspension was subcultured three times a week.
NCX reverse mode activity was stimulated via a 50% dilution of the extracellular Na^+ level using the internal pipettor of FLEXstation, a fluorescence imaging plate reader (Molecular Devices, USA), while simultaneously monitoring intracellular calcium levels. After dilution, the concentration of other ions remained the same, but Na^+ concentration was diluted to the half of original concentration of 172 to 86 mM. For Sf9 insect cells, normal extracellular Na^+ ion concentration is 172 mM. Typically, 50 μl of a solution containing 150,000–200,000 Sf9–NCX cells was loaded onto each well of a 96‐well plate. Cells were preincubated with the intracellular calcium dye Fluo‐4 and Fluo‐6, and the concentrations of the test compound (three replicates) were determined for about 1 h at room temperature before experimentation. The extracellular solution contained (in mM) 172 NaCl, 10 HEPES, 1 CaCl2, 1.2 MgCl2, 0.33 NaH2PO4, 5 glucose, and 5 probenecid. The pH was adjusted to 7.4 with NaOH. The extracellular Na^+ was diluted by the addition of a Na^+‐free extracellular solution (containing in mM: 147 N‐methyl‐D‐glucamine (NMDG), 10 HEPES, 1 CaCl2, 1.2 MgCl2, 0.33 NaH2PO4, and 5 glucose with the pH adjusted by HCl to 7.4)‐induced robust and reproducible elevation of intracellular calcium. The osmolarity of both solutions was adjusted to 340–355 mOsm in order to match the Sf9 cell media osmolarity. In each plate, the IC50 determination for each test compound was based on relative fluorescence changes in comparison with control and 5‐mM nickel acetate‐induced NCX inhibition.

Series [3] deals with NCX. More on the design: method as in ref 4 (a number printed in a supplementary file, which may have a reference list of its own: not looked up in the article's list). The settings on record: CCL39 fibroblast, cited from earlier work.
For another series, the target named is T2, MAO B (Homo sapiens, UniProt P27338).
T2 sequence (P27338 1-520): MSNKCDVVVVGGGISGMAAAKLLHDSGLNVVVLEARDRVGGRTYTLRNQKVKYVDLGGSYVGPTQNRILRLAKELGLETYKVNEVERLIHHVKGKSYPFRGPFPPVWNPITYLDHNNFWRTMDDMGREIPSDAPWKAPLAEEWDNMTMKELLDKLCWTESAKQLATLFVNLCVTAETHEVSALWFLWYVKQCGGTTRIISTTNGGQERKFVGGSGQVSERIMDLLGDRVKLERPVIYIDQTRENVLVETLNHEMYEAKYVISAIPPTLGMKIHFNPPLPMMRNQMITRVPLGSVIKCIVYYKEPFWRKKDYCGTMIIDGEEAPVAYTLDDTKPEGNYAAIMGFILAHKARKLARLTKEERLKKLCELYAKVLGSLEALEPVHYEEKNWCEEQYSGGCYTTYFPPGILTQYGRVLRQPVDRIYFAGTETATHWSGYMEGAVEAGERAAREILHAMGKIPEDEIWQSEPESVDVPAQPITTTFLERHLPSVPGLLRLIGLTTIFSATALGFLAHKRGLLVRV
Put plainly: MAO B inhibition (Table S2). It counts as biochemical. The settings on record: 10 μM.

For the next series, the target named is T3, MAO A (Homo sapiens, UniProt P21397).
T3 sequence (P21397 1-527): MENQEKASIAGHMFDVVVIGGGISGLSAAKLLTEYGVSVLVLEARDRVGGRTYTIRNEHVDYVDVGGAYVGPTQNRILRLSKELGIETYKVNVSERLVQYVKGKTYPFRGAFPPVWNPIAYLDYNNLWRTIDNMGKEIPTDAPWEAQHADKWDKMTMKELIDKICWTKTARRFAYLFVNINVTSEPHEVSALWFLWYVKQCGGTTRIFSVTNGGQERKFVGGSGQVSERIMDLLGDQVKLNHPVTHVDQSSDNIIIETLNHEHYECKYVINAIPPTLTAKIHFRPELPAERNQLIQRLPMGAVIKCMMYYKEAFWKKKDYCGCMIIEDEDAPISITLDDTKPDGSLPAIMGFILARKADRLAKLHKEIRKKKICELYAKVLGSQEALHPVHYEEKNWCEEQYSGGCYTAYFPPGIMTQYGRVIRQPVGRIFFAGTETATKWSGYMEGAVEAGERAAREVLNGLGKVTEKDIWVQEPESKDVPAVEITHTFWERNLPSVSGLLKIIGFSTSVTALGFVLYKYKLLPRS
The experiment in a line: MAO A inhibition (Table S2). It counts as biochemical. The settings on record: 10 μM.

In a further series the target is hERG (Homo sapiens, UniProt Q12809). The experiment in a line: hERG IC50 of Table 1 / Table S2 (method not assigned). The class given is cell-based. The settings on record: human; n=4 assays. (In general: Block of hERG is tested as a sign of cardiac risk.)
A further series relates to L-Type Ca2+ Channel. The settings on record: Table S2; cited from earlier work.
The subject of series [4] is NCX. More on the design: method as in ref 9 (a number printed in a supplementary file, which may have a reference list of its own: not looked up in the article's list). The settings on record: SH-SY5Y neuron, cited from earlier work.
Series [5] deals with human ventricular trabeculae. Particulars: 1 or 2 Hz; ORM‐11372 any tested concentration; dofetilide 0.1 μM (positive control).

Values after ≈ are worked out from the molar mass of the structure shown. Where two headings read alike, the source gives them in different places. Bounds are passed on as bounds.

Sequence of hERG (Q12809 whole entry): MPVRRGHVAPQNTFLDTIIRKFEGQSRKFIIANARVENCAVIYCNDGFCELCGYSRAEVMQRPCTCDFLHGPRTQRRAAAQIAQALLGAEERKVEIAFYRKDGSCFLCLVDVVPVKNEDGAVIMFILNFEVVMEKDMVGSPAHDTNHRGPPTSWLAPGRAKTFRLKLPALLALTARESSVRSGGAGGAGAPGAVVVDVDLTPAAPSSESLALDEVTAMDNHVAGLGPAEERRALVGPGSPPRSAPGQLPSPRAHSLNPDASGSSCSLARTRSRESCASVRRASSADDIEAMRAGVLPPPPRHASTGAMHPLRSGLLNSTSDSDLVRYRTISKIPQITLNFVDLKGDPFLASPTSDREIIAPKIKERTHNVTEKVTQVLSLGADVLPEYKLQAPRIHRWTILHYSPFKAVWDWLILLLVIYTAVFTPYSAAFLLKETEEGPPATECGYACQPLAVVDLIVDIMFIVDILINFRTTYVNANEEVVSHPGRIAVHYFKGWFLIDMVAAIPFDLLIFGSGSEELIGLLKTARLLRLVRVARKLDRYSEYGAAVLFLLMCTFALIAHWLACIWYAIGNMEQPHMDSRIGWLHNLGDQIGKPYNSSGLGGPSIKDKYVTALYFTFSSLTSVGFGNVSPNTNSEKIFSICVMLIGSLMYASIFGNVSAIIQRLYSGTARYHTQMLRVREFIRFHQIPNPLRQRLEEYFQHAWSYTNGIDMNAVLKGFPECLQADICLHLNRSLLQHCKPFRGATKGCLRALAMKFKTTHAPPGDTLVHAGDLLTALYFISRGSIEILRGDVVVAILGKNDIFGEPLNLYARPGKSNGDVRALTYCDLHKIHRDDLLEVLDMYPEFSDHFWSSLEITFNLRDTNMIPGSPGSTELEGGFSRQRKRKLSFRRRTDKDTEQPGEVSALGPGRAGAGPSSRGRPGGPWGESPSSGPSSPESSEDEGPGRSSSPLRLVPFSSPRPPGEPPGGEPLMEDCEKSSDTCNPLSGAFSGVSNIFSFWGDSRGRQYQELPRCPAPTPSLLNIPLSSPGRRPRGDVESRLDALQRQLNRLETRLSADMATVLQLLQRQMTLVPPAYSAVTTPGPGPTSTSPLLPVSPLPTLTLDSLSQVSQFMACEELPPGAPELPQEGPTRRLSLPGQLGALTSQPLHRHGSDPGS

Usually IC50 stands for the concentration needed to halve the response being measured. As to `N=C(N)SCCc1ccc(OCc2ccc([N+](=O)[O-])cc2)cc1` [KB-R7943], the concentration for half-maximal inhibition (IC50) was 120 nM in the series on NCX [1] (read-out: IC50 NCX forward); 61 nM with NCX [1] (read-out: IC50 NCX reverse); 3590 nM on hNCX1 (HEK293, forward mode, Table S2, read-out: hNCX1-HEK IC50); 243 nM with NCX [2] (read-out: IC50 NCX forward); 309 nM in the series with NCX [2] (read-out: IC50 NCX reverse); 3790 nM at human NCX 1.1. Besides, in “Solubility”, the Solubility class result is “Moderate (moderate solubility between 10-100 µg/ml)”.

What is called inhibition is the relative decrease from the control value, in per cent. A high value points to strong suppression. A word on the solubility: it is the concentration that dissolves in the medium under given conditions. With `CCOC(=O)C1CSC(Cc2ccc(OCc3ccc([N+](=O)[O-])cc3)cc2)N1` (stereo not shown) [SN‐6, 2‐[4‐(4‐nitrobenzyloxy)benzyl]thiazolidine‐4‐carboxylic acid ethyl ester], the IC50 is more than 100000 nM on hNCX1 (HEK293, text, read-out: IC50 hNCX1 (forward mode)); more than 30000 nM in the series with NCX [3] (read-out: IC50 NCX forward); 29000 nM in the series with NCX [3] (read-out: IC50 NCX reverse); 102000 nM against hERG; 16000 nM against human NCX 1.1. Moreover, the results for the inhibition at 10 µM at MAO B and against MAO A were 80% and 38%, respectively. The solubility in “Solubility” (phosphate buffer, pH 7.4, aqueous buffer, read-out: Solubility class) lay within 10 to 100 µg/mL (≈ 24.8 to 248 µM).

Regarding `Nc1cccc(CNC(=O)c2ccc(Oc3ccc(OCc4cccc(F)c4)cc3)nc2)c1` [YM-244769], the IC50 with L-Type Ca2+ Channel was more than 3000 nM; in the series with NCX [4] (read-out: IC50 NCX forward), 68 nM; with NCX [4] (read-out: IC50 NCX reverse) it was 96 nM.

For the compound `CN(CCOc1ccc(NS(C)(=O)=O)cc1)CCc1ccc(NS(C)(=O)=O)cc1` [dofetilide, reference compound], in series [5], the “STV and triangulation (pro‐arrhythmia markers)” value is “increased”.
